According to PMC9570017, “Unorthodox PCNA Binding by Chromatin Assembly Factor 1” (International Journal of Molecular Sciences, 2022):
Read-outs that look alike come from different tables or passages of the source.

Tests used:
PCNA [1] = conditions: in vitro; ref [18]; cited from earlier work
Source text: CAF-1 is composed of three subunits, conserved from yeast to human. In humans, mice, and Xenopus, the three subunits of CAF-1 are p150 (CHAF1A), p60 (CHAF1B), and RbAp48 (RBBP4). p150 contains two regions that bind PCNA. The first is a motif located within the N-terminal domain of p150 that we previously referred to as the PCNA binding domain (PBD) (Figure 1A). […] I ... || Similarly, the CAF-1 PIP box sequence of Msh3, which is a part of the DNA mismatch repair machinery, is 19-[…]-41 and in accordance with the canonical sequence, the first PIP box residue corresponds to a glutamine, whereas in contrast, in the PIP box of CAF-1 this is replaced by a lysine at this position, thus making the binding mode of CAF-1 p150 non-canonical and unique in the case of human CAF-1 sequence 442-[…]-449 and mouse CAF-1 sequence 421-[…]-428. Previous research from our lab has also shown that substitution of the CAF-1 p150 lysine by a glutamine to ...

[2] = tested on: replication-coupled chromatin assembly; conditions: ref [18], cited from earlier work
Source text: CAF-1 is composed of three subunits, conserved from yeast to human. In humans, mice, and Xenopus, the three subunits of CAF-1 are p150 (CHAF1A), p60 (CHAF1B), and RbAp48 (RBBP4). p150 contains two regions that bind PCNA. The first is a motif located within the N-terminal domain of p150 that we previously referred to as the PCNA binding domain (PBD) (Figure 1A). […] In order to probe this further, we determined the preliminary model of the structure of CAF-1 p150 PIP bound to PCNA based on a molecular replacement solution that could not be refined further. We report here that the CAF-1 PIP binds to PCNA in an unprecedented manner.

PCNA [3] = experiment: NMR 1H-15N BEST HSQC of 15N-p150L with PCNA; assay type: binding, human; conditions: 50 μM p150L, 400 μM PCNA monomer, 10 mM sodium phosphate pH 7.2, 10 mM NaCl, 293K
Method: NMR experiments were carried out on a 600 MHz Bruker Avance III spectrometer equipped with a 5 mm QCIP cryoprobe with Z gradients. All experiments were carried out at 293K. Two-dimensional ^1H-^15N BEST HSQC [60] experiments were carried out using the sequences downloaded from the NMRlib suite of pulse sequences. Selective shaped pulses were used to excite a ^1H sweep width of 4.5 ppm, centered at 8.75 ppm, with a recycle delay of 0.2 s. ^1H and ^15N sweep widths were set to 8417.509 Hz (14 ppm) and 1920.466 Hz (31.6 ppm) respectively, typically 240 t1 increments were acquired. NMR samples were prepared in 10 mM sodium phosphate buffer, pH 7.2, 10 mM NaCl, and 90% H2O/10% D2O. Uniformly ^15N labelled CAF-1 p150L and unlabeled PCNA were prepared in identical buffers and added together from stock samples. Final sample concentrations were at 50 μM for CAF-1 p150L and 400 μM PCNA monomer. NMR spectra were processed with NMRpipe, a multidimensional spectral system based on UNIX pipes.

PCNA [4] = experiment: Intrinsic tryptophan fluorescence quenching of PCNA by p150L; assay type: binding, human; conditions: 5 µM PCNA monomer + 20 µM p150L, excitation 280 nm, 10 mM sodium phosphate pH 7.2, 10 mM NaCl, 0.1 mM TCEP, room temperature
Method: Fluorescence experiments were performed on an Agilent Cary Eclipse fluorimeter at room temperature. Buffer conditions were identical for all protein components (10 mM sodium phosphate, pH 7.2, 10 mM NaCl, 0.1 mM TCEP). Samples were excited at A280nm with a 5 nm bandwidth and the emission spectra between 295 nm and 420 nm were collected. Measurements were made for 5 μM PCNA monomer (1 tryptophan residue), 20 μM CAF-1 p150L (no tryptophan and tyrosine residues), and a mixture containing 5 μM PCNA monomer and 20 μM CAF-1 p150L. Both samples were extensively dialyzed against the same buffer and prepared from stock samples to ensure identical conditions.

DNA = experiment: Co-purification with nucleic acid (DNA binding); conditions: purification of p150L; high salt washes combined with benzonase required to remove nucleic acid
Source text: An unusually long α-helix (119 amino acids) is predicted to end abruptly in the PIP RFF residues. The CAF-1 p150 PIP is surrounded by a red rectangle. To address this surprising prediction, CAF-1 p150 fragments that contained the predicted long α-helix including the PIP were expressed in E. coli, purified, and their biochemical and biophysical properties were characterized. This fragment of human p150 (Figure 5, residues 342–474) was expressed as a His-tagged fusion protein, hereafter referred to as CAF-1 p150L. […] Further treatment with benzonase and three sequential 1 M NaCl washes were required to remove the contamination.
S2. Expression and purification of p150L in Escherichia coli
A DNA fragment encoding human p150 residues 342-475 was cloned into the pET28a vector (kanamycin resistant) in-frame with a C-terminal 6X-histidine tag. For p150L ex-pression, this plasmid was transformed into Escherichia coli BL21(DE3) RIL cells (Strata-gene). Single colonies were inoculated and grown overnight to saturation at 37°C in 2X YT medium containing 50 µg/ml kanamycin. The next day, cells were diluted and grown to mid-exponential phase (A600nm = 0.6 - 0.8) at 37°C and protein expression was induced at 20°C with 0.5 mM isopropyl-β-D-thiogalactopyranoside (IPTG) for 16 h. […]

Substance | binding to PCNA (PCNA [1]) | role or effect in chromatin assembly ([2]; listed as CAF-1 PIP) | role or effect in chromatin assembly [2] | NMR signal changes on mixing with PCNA (PCNA [3]) | NMR signal changes on mixing with PCNA (PCNA [3]; listed as p150L) | quenching of PCNA tryptophan fluorescence / binding (PCNA [4]) | quenching of PCNA tryptophan fluorescence / binding (PCNA [4]; listed as p150L) | DNA / nucleic acid binding (DNA)
KAEITRFF [PIP of p150] | shows weaker affinity for PCNA | preferentially inhibit nucleosome assembly over DNA synthesis | essential for chromatin assembly | – | – | – | – | –
CAF-1 p150L: fragment of human p150 (residues 342–474) expressed as a His-tagged fusion protein | – | – | – | some of the well-resolved peaks corresponding to CAF-1 p150L disappeared or were significantly shifted | most of the p150L spectrum disappears | quenched a small portion of the tryptophan signal derived from PCNA | weak binding | co-purified with nucleic acid contamination
